Results published in article PMC8580996, “2-Oxoglutarate derivatives can selectively enhance or inhibit the activity of human oxygenases” (Nature Communications, 2021).
“And” between values parts separate entries of the source, which are not always exact repeats. Equal values may be shown once.

Experiments:
FIH [1] = target: T1, FIH (Homo sapiens, UniProt Q9NWT6); assay: SPE-MS FIH turnover (cosubstrate) assay in the absence of 2OG; format: biochemical; details: 330 μM 2OG or 2OG derivative, no 2OG, t = 15 min
T1 sequence (Q9NWT6 whole entry): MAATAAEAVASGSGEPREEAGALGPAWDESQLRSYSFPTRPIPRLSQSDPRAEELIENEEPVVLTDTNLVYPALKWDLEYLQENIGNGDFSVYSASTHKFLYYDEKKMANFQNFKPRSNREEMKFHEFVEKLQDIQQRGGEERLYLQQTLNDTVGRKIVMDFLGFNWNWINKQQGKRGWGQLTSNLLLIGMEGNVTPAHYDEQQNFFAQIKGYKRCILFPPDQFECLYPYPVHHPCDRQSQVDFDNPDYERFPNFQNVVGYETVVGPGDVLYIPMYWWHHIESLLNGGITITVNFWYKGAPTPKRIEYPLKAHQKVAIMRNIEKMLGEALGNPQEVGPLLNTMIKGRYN
Summary of the method: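 With 2OG omitted, 2OG analogues were tested as cosubstrates for recombinant FIH, and +16 Da hydroxylated product versus remaining substrate was monitored by C4 solid-phase extraction coupled to MS. Percent conversion came from product integral over summed substrate and product integrals.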

FIH [2] = target: T1, FIH; assay: Competition assay in a single reaction vessel, FIH-catalyzed hydroxylation (SPE-MS); format: biochemical; details: Fig 2c; for substrate hydroxylation (% conversion): 20 μM 1, FIH
AspH [3] = target: T2, AspH (Homo sapiens, UniProt Q12797); assay: Competition assay in a single reaction vessel, AspH-catalyzed hydroxylation (SPE-MS); format: biochemical; details: Fig 2c; for substrate hydroxylation (% conversion): 20 μM 1, AspH
T2 construct: the tetratricopeptide repeat domain (His6-AspH315-758), was produced and purified as previously reported; made in house
T2 sequence (Q12797 315-758): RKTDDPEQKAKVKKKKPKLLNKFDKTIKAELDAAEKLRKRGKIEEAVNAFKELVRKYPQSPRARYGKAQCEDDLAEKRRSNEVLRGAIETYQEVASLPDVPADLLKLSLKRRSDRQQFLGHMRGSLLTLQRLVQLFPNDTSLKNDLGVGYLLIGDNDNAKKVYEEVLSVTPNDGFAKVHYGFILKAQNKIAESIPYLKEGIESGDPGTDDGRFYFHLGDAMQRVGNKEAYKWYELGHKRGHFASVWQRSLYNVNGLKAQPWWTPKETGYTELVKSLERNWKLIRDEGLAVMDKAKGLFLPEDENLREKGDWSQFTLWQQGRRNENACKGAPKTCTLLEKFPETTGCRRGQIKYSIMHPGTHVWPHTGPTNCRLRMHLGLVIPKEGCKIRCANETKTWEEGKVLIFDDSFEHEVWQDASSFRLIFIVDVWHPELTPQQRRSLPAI

AspH [4] = target: T2, AspH; parameters: method as in PMID 34163896; details: hFX-CP101–119 substrate, 330 μM 2OG or 2OG derivative, t = 15 min; cited from earlier work

SMILES: CC(CC(=O)O)C(=O)C(=O)O (stereo not shown) [compound 1, 3-methyl-2OG]
- FIH activity, %-substrate conversion (FIH [1]; CA1–20 substrate): > 90%
- FIH activity, %-substrate conversion (FIH [1]; HIF-1α788–822 substrate): ~55%
- substrate hydroxylation (% conversion) (FIH [2]; 0 min): 3.506 and 4.816 and 5.633
- substrate hydroxylation (% conversion) (FIH [2]; 0.700167 min): 19.4856 and 18.7444 and 19.2793
- substrate hydroxylation (% conversion) (FIH [2]; 1.39933 min): 32.3038 and 30.8139 and 30.8824
- substrate hydroxylation (% conversion) (FIH [2]; 2.10017 min): 43.2797 and 40.6551 and 40.5787
- substrate hydroxylation (% conversion) (FIH [2]; 2.79917 min): 51.3082 and 49.0078 and 49.2389
- substrate hydroxylation (% conversion) (FIH [2]; 3.5005 min): 58.9995 and 56.3411 and 56.671
- substrate hydroxylation (% conversion) (FIH [2]; 4.20083 min): 64.1723 and 62.5798 and 63.2033
- substrate hydroxylation (% conversion) (FIH [2]; 4.9 min): 69.5252 and 67.0447 and 68.2025
- substrate hydroxylation (% conversion) (FIH [2]; 5.60117 min): 73.4042 and 71.6094 and 72.347
- substrate hydroxylation (% conversion) (FIH [2]; 6.29967 min): 77.1725 and 74.6235 and 74.9327
- substrate hydroxylation (% conversion) (FIH [2]; 7.00033 min): 79.731 and 76.5169 and 77.4955
- substrate hydroxylation (% conversion) (FIH [2]; 7.7025 min): 81.4904 and 79.3791 and 79.9762
- substrate hydroxylation (% conversion) (FIH [2]; 8.40233 min): 83.8334 and 81.9815 and 82.8865
- substrate hydroxylation (% conversion) (FIH [2]; 9.10283 min): 86.0072 and 84.3134 and 84.9864
- substrate hydroxylation (% conversion) (FIH [2]; 9.806 min): 87.2729 and 86.3042 and 86.5893
- substrate hydroxylation (% conversion) (FIH [2]; 11.207 min): 89.9552 and 84.6882 and 85.7483
- FIH-catalyzed CA1–20 hydroxylation (FIH [2]; 20 μM 1, after about 8 min): > 80%
- substrate hydroxylation (% conversion) (AspH [3]; 3.5005 min): 100
- substrate hydroxylation (% conversion) (AspH [3]; 4.20083 min): 100
- substrate hydroxylation (% conversion) (AspH [3]; 5.60117 min): 100
- substrate hydroxylation (% conversion) (AspH [3]; 6.29967 min): 100
- substrate hydroxylation (% conversion) (AspH [3]; 7.00033 min): 100
- substrate hydroxylation (% conversion) (AspH [3]; 7.7025 min): 100
- substrate hydroxylation (% conversion) (AspH [3]; 8.40233 min): 100
- substrate hydroxylation (% conversion) (AspH [3]; 9.10283 min): 100
- substrate hydroxylation (% conversion) (AspH [3]; 9.806 min): 100
- substrate hydroxylation (% conversion) (AspH [3]; […]): 100
- AspH-catalyzed hFX-EGFD1_86–124-4Ser hydroxylation (AspH [3]; 20 μM 1, within ~2 min): > 95%
- AspH activity, %-substrate conversion (AspH [4]): >95%
